From paper PMC11061832, “Antiviral Rotenoids and Isoflavones Isolated from Millettiaoblata ssp. teitensis” (Journal of Natural Products, 2024)
“Also recorded” adds a separate entry of the source.

Tests used:
in vitro = settings: human
Method: (§1) The extracts and the isolated compounds were tested for antiviral activity against RSV by the viral plaque reduction assay in cultures of HEp-2 cells (Table 3, Supporting Information). A tetrazolium-based cytotoxicity assay on HEp-2 cells was also performed to exclude that the anti-RSV activity was a result of general cytotoxicity. The cytotoxicity assay was complemented by microscopy observation of the compound- and extract-treated cells to detect possible cytostatic activity, such as poor cell growth and/or altered cell shape that may affect antiviral activity. […] At this stage, it is difficult to assess whether the cytostatic activity of these specific compounds contributed to the protection of cells against virus infection, and accordingly the specificity of anti-RSV action of 9 and 13 requires further investigation. An attempt was made to address this issue by testing cytotoxic activities of the most promising compounds in human embryonic lung fibroblasts (HELFs), i.e., primary cells derived from lung interstitium.
(§2) HEp-2 cells were cultivated in Dulbecco’s modified Eagle’s medium (DMEM) supplemented with 8% fetal calf serum and 292 μg/mL of L-glutamine. Human adenocarcinoma cells of uterine cervix (HeLa) were grown in Eagle’s minimum essential medium supplemented with 5% fetal calf serum and antibiotics. HELFs were grown in Eagle’s minimum essential medium supplemented with 5% fetal calf serum, L-glutamine, and antibiotics. The A2 strain of RSV (ATCC VR-1540) was used. The RSV stock was prepared and stored as described previously by Lundin et al.[50] In some experiments, strain HGP of HRV-2 (ATCC, VR-482) was used.
(§3) The tetrazolium-based cytotoxicity assay using a CellTiter 96 Aqueous One solution reagent (Promega) was performed for the test extracts and isolated compounds in HEp-2, HELFs, and HeLa cells as described previously.[50]
(§4) Figure S130. Cell viability in presence of the crude extracts of leaves and root heart of Milletia oblata ssp teitensis. The HEp-2 cells were incubated for 3 days at 37 °C with specific concentration of test extract. After addition of the tetrazolium (MTS)-based reagent the absorbance was recorded at 490 nm. The results are expressed as a percentage of absorbance developed in extract treated cells relative to DMSO treated controls. […]

RSV = RSV plaque reduction assay in HEp-2 cells; settings: for SI (CC50/IC50): CC50 HEp-2 / anti-RSV IC50; for IC50: human respiratory syncytial virus, HEp-2, 72 h, read-out: anti-RSV activity IC50
Method: as §1
Human adenocarcinoma cells of uterine cervix (HeLa) were grown in Eagle’s minimum essential medium supplemented with 5% fetal calf serum and antibiotics. HELFs were grown in Eagle’s minimum essential medium supplemented with 5% fetal calf serum, L-glutamine, and antibiotics. […] The RSV stock was prepared and stored as described previously by Lundin et al.[50]
The RSV plaque reduction assay was performed as described previously[27],[51] with some modifications. […] Following 15 min of incubation at 37 °C in a humidified atmosphere comprising 5% CO2 (incubator), the cells were inoculated with 50–100 plaque-forming units of RSV A2. After incubation of the virus–compound mixture with cells for 2.5 h in the CO2 incubator, the inoculum was removed and 750 μL of 1% methylcellulose solution in DMEM-M comprising the same concentration of test compound/extract was added and left for a further 3 days in the CO2 incubator. The cells were stained with a 1% solution of crystal violet, and the viral plaques were counted under a microscope.

HRV-2 = test: Anti-HRV-2 tetrazolium-based cell protection assay in HeLa cells; parameters: species or system human rhinovirus 2 (strain HGP)
[1] = Tetrazolium-based cytotoxicity assay in human embryonic lung fibroblasts; settings: human
Method: as §1, §2, §3

[2] = test system: human embryonic lung fibroblasts (HELFs); test: as above; settings: primary lung fibroblasts
Method: as §1, §2, §3

[3] = Tetrazolium-based cytotoxicity assay in HeLa cells; assay type: cell-based; settings: human, 34 °C
Method: Figure S133. Anti-HRV-2 (IC50) of 3 of Milletia oblata ssp teitensis in HeLa cells. In the cell protection against HRV assay, the cells were incubated in the presence of specific concentrations of test compound for 3 h, then inoculated with HRV and incubated for further 3 days at 34°C. Two separate experiments were performed, and the cell protection against HRV-2 was calculated according to formula described in the Method section. In the cell viability assay, the cells were incubated with test compound for 3 days at 34°C. For further explanations see legend to Figure S130.
Table S1. Anti-RSV activity, cytotoxicity for HEp-2 cells, and selectivity indices (SI) of Milletia oblata extracts. For explanations see legend to Table 3.
Compound/extract Anti-RSV activity Cytotoxicity SI […]
Root wood extract 3.4 66 PCS (8 µg/mL) 19.4
(1 picture or pasted object on this page, not shown here)

HEp-2 cells [4] = test: Tetrazolium-based cytotoxicity assay in HEp-2 cells; settings: read-out: cytotoxicity CC50; HEp-2 cells, tetrazolium-based assay
Method: as §1, §2, §3, §4

HEp-2 cells [5] = test: Microscopic recording of cytostatic activity in compound-treated HEp-2 cells; settings: microscopy, PCP poor cell proliferation, ACS altered cell shape, PCS poor cell staining, concentration(s) at which seen in brackets
Method: as §1

[6] = cytotoxicity CC50, HEp-2 cells, tetrazolium-based assay
[7] = HEp-2 cells, cytotoxicity CC50, HEp-2 cells, tetrazolium-based assay
[8] = human embryonic lung fibroblasts (HELFs), primary cells

## COc1ccc2c(c1)O[C@@H]1COc3c(cc(OC)c4c3OCO4)[C@@H]1C2=O [Compound 1, (6aS,12aS)-2,9-dimethoxy-3,4-methylenedioxyrotenoid]
In vitro; [6]
  CC50: > 100 µM
RSV
  SI (CC50/IC50): 1.0
  IC50: > 100 µM

## COc1cc2c(cc1OC)C(=O)[C@@]1(O)c3cc4c(cc3OC[C@H]1O2)OCO4 [Compound 2, (6aR,12aR)-9,10-dimethoxy-2,3-methylenedioxy-12a-hydroxyrotenoid]
In vitro; [6]
  CC50: > 100 µM
RSV
  SI (CC50/IC50): 1.0
  IC50: > 100 µM

## COc1ccc2c(=O)c3c(oc2c1)COc1cc2c(cc1-3)OCO2 [Compound 3, 9-methoxy-2,3-methylenedioxy-6a-2a-dehydrorotenoid]
In vitro; [7]
  CC50 at 3 days: 90 µM
HRV-2; CC50 HeLa / anti-HRV-2 IC50
  SI: 11.4
HRV-2; Rhinovirus A, HRV2, 72 h, protection of HeLa cells against HRV-2 infection, 3 days, 34 °C
  IC50: 4.2 µM
[1]; [8]
  CC50: > 100 µM
[2]
  cytotoxicity (in words): low cytotoxicity
[3]
  CC50 at 3 days: 48 µM
RSV
  SI (CC50/IC50): 4.1
  IC50: 22 µM

## COc1c(O[C@@H]2O[C@H](CO[C@H]3O[C@H](C)[C@@H](O)[C@H](O)[C@@H]3O)[C@@H](O[C@@H]3O[C@H](CO[C@H]4O[C@H](C)[C@@H](O)[C@H](O)[C@@H]4O)[C@@H](O)[C@H](O)[C@H]3O)[C@H](O)[C@H]2O)cc2c(=O)c(-c3ccc4c(c3)OCO4)coc2c1OC [Compound 4, isoplatycarpanetin-6-O-β-glucosyl-(7″→1‴′)-α-rhamnosyl-(4″→1‴)-β-glucosyl-(7‴→1‴′)-α-rhamnoside]
In vitro; [7]
  CC50 at 3 days: > 100 µM
RSV
  SI (CC50/IC50): 1.0
  IC50: > 100 µM

## COc1ccc2c(c1)O[C@@H]1COc3cc4c(cc3[C@@H]1C2=O)OCO4 [Compound 5, oblarotenoid C]
In vitro; [6]
  CC50: > 100 µM
RSV
  SI (CC50/IC50): >1.9
  IC50: 53 µM

## COc1ccc2c(c1)O[C@@H]1COc3cc4c(cc3[C@]1(O)C2=O)OCO4 [Compound 6, oblarotenoid A]
In vitro; [6]
  CC50: > 26.5 µM
HEp-2 cells [4]
  CC50: 50 µM
[1]
  CC50: 1.3 µM
RSV
  SI (CC50/IC50): 35.7
  IC50: 1.4 µM
HEp-2 cells [5]
  cytotoxicity: cytostatic activity: PCS (20.0 μM)

## COc1ccc2c(c1)O[C@@H]1COc3c(cc(OC)c4c3OCO4)[C@]1(O)C2=O [Compound 7, oblarotenoid D]
In vitro; [6]
  CC50: 6.7 µM
RSV
  SI (CC50/IC50): 3.8
  IC50: 1.8 µM

## COc1ccc2c(c1)O[C@@H]1COc3cc(OC)c(OC)cc3[C@]1(O)C2=O [Compound 8, 12a-hydroxymunduserone]
In vitro; [6]
  CC50: > 26.5 µM
HEp-2 cells [4]
  CC50: 42 µM
[1]
  CC50: 4.8 µM
RSV
  SI (CC50/IC50): 28.0
  IC50: 1.5 µM
HEp-2 cells [5]
  cytotoxicity: cytostatic activity: PCS (20.0 μM)

## COc1cc2c(cc1OC)[C@]1(O)C(=O)c3ccc4c(c3O[C@@H]1CO2)C=CC(C)(C)O4 [Compound 9, tephrosin]
In vitro
  CC50 at 3 days: 12.5 µM
RSV
  SI (CC50/IC50): 15.6
  IC50: 0.8 µM
HEp-2 cells [5]
  cytotoxicity: cytostatic activity: cytostatic activity at concentrations close to their IC50 values; also recorded: PCS (0.8 and 4.0 μM)

## COc1cc2c(cc1OC)[C@@H]1C(=O)c3ccc4c(c3O[C@@H]1CO2)C=CC(C)(C)O4 [Compound 10, deguelin]
In vitro; [6]
  CC50: > 26.5 µM
HEp-2 cells [4]
  CC50: 26.5 µM
[1]
  CC50: 0.3 µM
RSV
  IC50: 0.4 µM
HEp-2 cells [5]
  cytotoxicity: cytostatic activity: PCS (4.0 μM)

## COc1cc2c(cc1-c1coc3c4c(c(OC)cc3c1=O)OC(C)(C)C=C4)OCO2 [Compound 11, ichthynone]
[1]; [8]
  CC50: > 100 µM
[2]
  cytotoxicity (in words): low cytotoxicity
RSV
  SI (CC50/IC50): 11.4
  IC50: 8 µM
HEp-2 cells [5]
  cytotoxicity: cytostatic activity: PCS (20.0 μM)

## COc1ccc2c(=O)c(-c3cc(OC)c4c(c3OC)OCO4)coc2c1 [Compound 12, 7,2′,5′-trimethoxy-3′,4′-methylenedioxyisoflavone]
In vitro; [7]
  CC50 at 3 days: > 100 µM
RSV
  SI (CC50/IC50): 1.0
  IC50: > 100 µM

## CC(C)=CCOc1ccc(-c2coc3c4c(ccc3c2=O)OC(C)(C)C=C4)cc1 [Compound 13, isoerythrin-A-4′-prenyl ether]
In vitro; [7]
  CC50 at 3 days: > 100 µM
[1]; [8]
  CC50: 9 µM
RSV
  SI (CC50/IC50): >47.6
  IC50: 2.1 µM
HEp-2 cells [5]
  cytotoxicity: cytostatic activity: cytostatic activity at concentrations close to their IC50 values; also recorded: PCS (4.0, 20.0, and 100.0 μM)

## CC(C)=CCOc1ccc(-c2coc3c4c(cc(O)c3c2=O)OC(C)(C)C=C4)cc1 [Compound 14, 4′-prenyloxyderrone]
[1]; [8]
  CC50: > 100 µM
[2]
  cytotoxicity (in words): low cytotoxicity
RSV
  SI (CC50/IC50): >10
  IC50: 10 µM
HEp-2 cells [5]
  cytotoxicity: cytostatic activity: PCS (100.0 μM)

## COc1ccc2c(=O)c(-c3cc4c(cc3OC)OCO4)coc2c1 [Compound 15, aglycuneatin methyl ether]
In vitro; [7]
  CC50 at 3 days: 65 µM
[1]; [8]
  CC50: 47.1 µM
RSV
  SI (CC50/IC50): 6.5
  IC50: 10 µM
HEp-2 cells [5]
  cytotoxicity: cytostatic activity: PCS (20.0 μM)

## CC1(C)C=Cc2c(ccc3c(=O)c(-c4ccc5c(c4)OCO5)coc23)O1 [Compound 16, calopogonium isoflavone B]
In vitro; [7]
  CC50 at 3 days: > 100 µM
RSV
  SI (CC50/IC50): 1.0
  IC50: > 100 µM

## COc1cc2c(cc1-c1coc3cc(O)ccc3c1=O)OCO2 [Compound 17, maximaisoflavone G]
In vitro; [7]
  CC50 at 3 days: > 100 µM
RSV
  SI (CC50/IC50): 1.0
  IC50: > 100 µM

## CC1(C)C=Cc2c(ccc(C(=O)/C=C/c3ccc(O)cc3)c2O)O1 [Compound 19, isobavachromene]
In vitro; [7]
  CC50 at 3 days: 2 µM
RSV
  SI (CC50/IC50): <2.5
  IC50: > 0.8 µM

## NC(=O)c1ncn([C@@H]2O[C@H](CO)[C@@H](O)[C@H]2O)n1 [ribavirin, reference compound]
In vitro; cytotoxicity CC50
  CC50 at 3 days: > 100 µM
RSV
  IC50: 10.6 µM
